Values of other authors, collected in patent US6011041A, “Use of anhydrovinblastine” (priority 1996, dated 2000).

Key:
[1] = humans; cited from earlier work
[2] = tested on: tumour; conditions: alkaloids extracted from Vinca rosea; cited from earlier work
[3] = tested on: human rhabdosarcomas; conditions: in vivo; cited from earlier work

In the case of `CC[C@]1(O)C[C@@H]2CN(CCc3c([nH]c4ccccc34)[C@@](C(=O)OC)(c3cc4c(cc3OC)N(C)[C@H]3[C@@](O)(C(=O)OC)[C@H](OC(C)=O)[C@]5(CC)C=CCN6CC[C@]43[C@@H]65)C2)C1` [vinblastine], the dose limiting toxicity [1] is given as “anemia and leucopenia”, the antitumour activity [2] is given as “significant antitumour activity” and the “activity in human rhabdosarcomas transplanted in nude mice” value [3] is given as “not active in this system”.
In the case of `CC[C@]12CN3CCc4c([nH]c5ccccc45)[C@@](C(=O)OC)(c4cc5c(cc4OC)N(C)[C@H]4[C@@](O)(C(=O)OC)[C@H](OC(C)=O)[C@]6(CC)C=CCN7CC[C@]54[C@@H]76)C[C@@H](C3)[C@H]1O2` [vinleurosine], the antitumour activity [2] is given as “significant antitumour activity”.
